Data from article PMC8237267 (Journal of Medicinal Chemistry, 2021).

Assays:
[1] = Permeability by lipid-PAMPA; type: in vitro ADME; conditions: lecithin/dodecane, PBS pH 7.4, 16 h
Method: A 1.8% solution (w/v) of lecithin in dodecane was added to each acceptor plate well (top), followed by application of the artificial membrane and addition of 300 μL of PBS (pH 7.4) solution to each well of the acceptor plate. Compounds were added to the donor plate and incubated at 25 °C, 60 rpm for 16 h. After incubation, aliquots of 50 μL from each acceptor well and donor plate were transferred into a 96-well plate, vortexed at 750 rpm for 100 s and centrifuged at 3220g for 20 min. Compound concentrations and effective permeability (Pe) were determined by LC/MS/MS.

[2] = target: T1, HDAC3 (Homo sapiens, UniProt O15379); assay: HDAC EMSA activity assay (Nanosyn); type: biochemical; conditions: read-out: IC50 HDAC3
T1 construct: The full-length human HDACs were recombinantly expressed and purified from SF9 insect cells; host or cells: SF9 insect cells
T1 sequence (O15379 whole entry): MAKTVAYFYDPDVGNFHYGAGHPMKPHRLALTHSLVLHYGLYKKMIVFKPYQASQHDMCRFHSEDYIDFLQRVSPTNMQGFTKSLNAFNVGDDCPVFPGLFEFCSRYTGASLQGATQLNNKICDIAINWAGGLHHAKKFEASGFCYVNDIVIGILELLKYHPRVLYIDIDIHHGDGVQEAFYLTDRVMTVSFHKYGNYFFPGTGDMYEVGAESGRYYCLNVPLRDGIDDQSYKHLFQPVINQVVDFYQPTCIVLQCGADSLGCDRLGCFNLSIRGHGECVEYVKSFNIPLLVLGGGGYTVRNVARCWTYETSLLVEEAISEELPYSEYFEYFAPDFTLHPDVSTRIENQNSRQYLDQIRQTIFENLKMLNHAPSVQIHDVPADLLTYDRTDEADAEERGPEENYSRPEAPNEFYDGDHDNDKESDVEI
T1 sequence (Q9Y618 395-489 partner limits assumed): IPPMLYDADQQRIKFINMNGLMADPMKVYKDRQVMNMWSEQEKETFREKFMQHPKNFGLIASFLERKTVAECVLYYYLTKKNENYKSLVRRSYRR

[3] = test system: MRC-9; assay: Cytotoxicity assay (Cell Titer-Blue, 72 h); type: cell-based; conditions: MRC-9 (healthy fibroblasts); read-out: In cellulo IC50 MRC-9
[4] = target: T2, HDAC6 (Homo sapiens, UniProt Q9UBN7); assay: Determination of Ki (Kon kinetics); type: biochemical; conditions: time-dependent inhibition Kon experiment
T2 sequence (Q9UBN7 1-1215): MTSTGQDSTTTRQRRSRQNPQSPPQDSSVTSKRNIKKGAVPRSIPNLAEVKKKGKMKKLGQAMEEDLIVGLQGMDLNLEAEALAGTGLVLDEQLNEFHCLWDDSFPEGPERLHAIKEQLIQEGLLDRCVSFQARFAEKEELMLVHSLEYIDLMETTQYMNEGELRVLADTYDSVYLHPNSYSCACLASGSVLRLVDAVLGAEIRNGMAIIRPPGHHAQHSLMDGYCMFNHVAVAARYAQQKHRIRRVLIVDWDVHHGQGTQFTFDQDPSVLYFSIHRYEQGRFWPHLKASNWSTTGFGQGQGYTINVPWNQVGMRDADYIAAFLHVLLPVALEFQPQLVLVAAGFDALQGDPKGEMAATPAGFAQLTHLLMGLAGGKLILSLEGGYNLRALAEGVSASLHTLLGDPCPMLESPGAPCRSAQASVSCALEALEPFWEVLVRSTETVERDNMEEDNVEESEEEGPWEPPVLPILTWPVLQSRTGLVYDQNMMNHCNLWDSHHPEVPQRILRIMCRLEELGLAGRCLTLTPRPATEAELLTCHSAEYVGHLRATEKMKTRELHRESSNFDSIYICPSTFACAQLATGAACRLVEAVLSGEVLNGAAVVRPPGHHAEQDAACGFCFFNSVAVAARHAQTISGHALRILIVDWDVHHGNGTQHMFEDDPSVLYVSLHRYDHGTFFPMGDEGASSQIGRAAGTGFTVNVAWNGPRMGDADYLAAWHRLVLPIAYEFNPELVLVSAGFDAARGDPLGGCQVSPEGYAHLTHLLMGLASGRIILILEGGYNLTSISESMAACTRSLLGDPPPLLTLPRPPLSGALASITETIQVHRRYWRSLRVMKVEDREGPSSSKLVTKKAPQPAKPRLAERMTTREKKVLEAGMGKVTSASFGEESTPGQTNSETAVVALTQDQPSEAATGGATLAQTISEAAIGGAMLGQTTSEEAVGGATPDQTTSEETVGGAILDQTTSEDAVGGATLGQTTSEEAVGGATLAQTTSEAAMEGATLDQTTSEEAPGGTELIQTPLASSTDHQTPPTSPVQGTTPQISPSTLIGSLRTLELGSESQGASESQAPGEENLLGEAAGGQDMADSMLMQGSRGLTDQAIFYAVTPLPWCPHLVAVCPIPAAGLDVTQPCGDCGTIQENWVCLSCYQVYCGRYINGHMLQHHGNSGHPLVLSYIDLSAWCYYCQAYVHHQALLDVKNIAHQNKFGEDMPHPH
Method: Serial dilutions of compound were mixed with 3 nM HDAC6 enzyme and substrate peptide in assay buffer. Progress curves were acquired without preincubation for ∼5 h on a Labchip3000 instrument. Progress curves in the presence of compound were fit with the following equation: ((A + (Vs × x)) + (((Vo – Vs) × (1 – exp((−1 × Kobs) × t)))/Kobs)). To determine observed rate of inhibition, Vo was locked to that in control (Vi, DMSO only). Fractional steady state velocity (Vs/Vi) and Kobs values were plotted against [compound] to determine Ki and residence time.

[5] = test system: Mac1; assay: Cytotoxicity assay (Cell Titer-Blue, 72 h); type: cell-based; conditions: ALK- ALCL; one representative of three experiments; read-out: IC50 (heat map) Mac1
Method: (§1) The PTCL cell lines, KHYG-1, NK-92, SNK6, DERL-2, Mac1, 1305 Myla, Hut78, SU-DHL-1 or T-ALL cell lines SUP-T11, DND-41, and MOLT4 were maintained in RPMI-1640 supplemented with 10% FBS, 0.06 g/L penicillin/0.1 g/L streptomycin (Pen/Strep, Gibco), and 2 mM L-glutamine (Gibco). Culture media of KHYG-1, NK-92, SNK6, and DERL-2 cells was additionally supplemented with 2.5 ng/mL recombinant human IL-2 (ImmunoTools GmbH, Germany). The authenticity of PTCL cell lines was confirmed by analysis of highly polymorphic short tandem repeat loci (STR) using the PowerPlex 16 HS System (Promega; performed by Microsynth AG, Switzerland).
(§2) Cells were plated in 96-well flat-bottom sterile culture plates with low-evaporation lids (Costar #3997). The inhibitors and a vehicle control (0.5% DMSO) were added to the cells following 24 h. After 72 h, Cell Titer-Blue (Promega #G808A) was added to each well (20 μL), and the fluorescence was measured at 560/590 nm using a Cytation S63 spectrophotometer (BioTek) or a GloMax Discover Microplate Reader (Promega, Madison, WI, USA). GraphPad Prism 6.0 (GraphPad Software Inc.) was used to determine the IC50 values.

[6] = test system: Hut78; assay: Cytotoxicity assay (Cell Titer-Blue, 72 h); type: cell-based; conditions: Homo sapiens, CTCL, one representative of three experiments, read-out: IC50 (heat map) Hut78
Method: as §1, §2

[7] = target: T2, HDAC6; assay: HDAC EMSA activity assay (Nanosyn); type: biochemical; set-up: The full-length human HDACs were recombinantly expressed and purified from SF9 insect cells; host or cells: SF9 insect cells; conditions: EMSA (Nanosyn); read-out: IC50 HDAC6

With O=C(NO)c1ccc(CN(C2CC2)S(=O)(=O)c2cc(F)c(F)c(F)c2F)cc1 [Compound 14, 4-(((N-Cyclopropyl-2,3,4,5-tetrafluorophenyl)sulfonamido)methyl)-N-hydroxybenzamide] the “PAMPA -Log Pe” value ([1]; listed as 14 (KT-531)) was 5.44 ± 0.06, the “PAMPA -Log Pe” value ([1]; listed as KT-531) was 5.44 and the IC50 [2] was greater than 1 µM. The IC50 [3] was greater than 20 µM, the Ki [4] was 0.0173 µM and the IC50 [5] was 9.6 µM. It also gave an IC50 [6] of 16.2 µM and an IC50 [7] of 0.0085 µM.
